Reference: patent publication EP4722207A1, “OXOISOINDOLINYL-SUBSTITUTED TETRAHYDROPYRIMIDINEDIONE DERIVATIVE AND USE THEREOF” (Gluetacs Therapeutics (Shanghai) Co., Ltd., priority 2023, dated 2024)

Legend:
Assay type in all cases: cell-based
[1] = molecular target: T1, CK1α (Homo sapiens, UniProt P48729+Q96SW2); assay: Western-blot assay, substrate protein degradation in hPBMCs: CK1α; settings: for CK1α substrate protein remaining %: compounds at 50 nM and 500 nM, 24 hours
T1 construct: effects of the compounds of the present disclosure on the expression of target proteins in cells; endogenous in cells; host or cells: human PBMCs (hPBMCs)
T1 sequence (P48729 whole entry): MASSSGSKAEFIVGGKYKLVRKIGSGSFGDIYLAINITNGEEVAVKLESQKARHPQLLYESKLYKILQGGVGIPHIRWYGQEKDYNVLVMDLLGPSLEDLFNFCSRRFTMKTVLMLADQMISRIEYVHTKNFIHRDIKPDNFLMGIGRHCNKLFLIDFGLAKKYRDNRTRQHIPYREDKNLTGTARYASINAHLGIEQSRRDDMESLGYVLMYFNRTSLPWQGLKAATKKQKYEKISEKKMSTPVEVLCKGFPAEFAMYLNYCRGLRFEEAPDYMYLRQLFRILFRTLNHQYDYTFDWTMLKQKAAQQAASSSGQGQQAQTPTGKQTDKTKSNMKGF
T1 sequence (Q96SW2 whole entry): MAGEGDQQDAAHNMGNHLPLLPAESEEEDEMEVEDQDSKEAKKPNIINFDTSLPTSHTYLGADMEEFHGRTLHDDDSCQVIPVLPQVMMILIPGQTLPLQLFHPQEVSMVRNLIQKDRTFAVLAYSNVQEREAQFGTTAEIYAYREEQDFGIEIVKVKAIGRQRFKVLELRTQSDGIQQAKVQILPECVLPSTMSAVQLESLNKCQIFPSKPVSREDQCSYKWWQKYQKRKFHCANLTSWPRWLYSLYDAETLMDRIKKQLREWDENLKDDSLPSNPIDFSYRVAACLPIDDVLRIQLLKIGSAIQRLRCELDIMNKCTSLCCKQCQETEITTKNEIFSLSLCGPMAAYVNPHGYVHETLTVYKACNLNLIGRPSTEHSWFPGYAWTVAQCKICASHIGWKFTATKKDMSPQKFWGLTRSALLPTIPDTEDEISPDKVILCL
T1 sequence (Q16531 whole entry partner): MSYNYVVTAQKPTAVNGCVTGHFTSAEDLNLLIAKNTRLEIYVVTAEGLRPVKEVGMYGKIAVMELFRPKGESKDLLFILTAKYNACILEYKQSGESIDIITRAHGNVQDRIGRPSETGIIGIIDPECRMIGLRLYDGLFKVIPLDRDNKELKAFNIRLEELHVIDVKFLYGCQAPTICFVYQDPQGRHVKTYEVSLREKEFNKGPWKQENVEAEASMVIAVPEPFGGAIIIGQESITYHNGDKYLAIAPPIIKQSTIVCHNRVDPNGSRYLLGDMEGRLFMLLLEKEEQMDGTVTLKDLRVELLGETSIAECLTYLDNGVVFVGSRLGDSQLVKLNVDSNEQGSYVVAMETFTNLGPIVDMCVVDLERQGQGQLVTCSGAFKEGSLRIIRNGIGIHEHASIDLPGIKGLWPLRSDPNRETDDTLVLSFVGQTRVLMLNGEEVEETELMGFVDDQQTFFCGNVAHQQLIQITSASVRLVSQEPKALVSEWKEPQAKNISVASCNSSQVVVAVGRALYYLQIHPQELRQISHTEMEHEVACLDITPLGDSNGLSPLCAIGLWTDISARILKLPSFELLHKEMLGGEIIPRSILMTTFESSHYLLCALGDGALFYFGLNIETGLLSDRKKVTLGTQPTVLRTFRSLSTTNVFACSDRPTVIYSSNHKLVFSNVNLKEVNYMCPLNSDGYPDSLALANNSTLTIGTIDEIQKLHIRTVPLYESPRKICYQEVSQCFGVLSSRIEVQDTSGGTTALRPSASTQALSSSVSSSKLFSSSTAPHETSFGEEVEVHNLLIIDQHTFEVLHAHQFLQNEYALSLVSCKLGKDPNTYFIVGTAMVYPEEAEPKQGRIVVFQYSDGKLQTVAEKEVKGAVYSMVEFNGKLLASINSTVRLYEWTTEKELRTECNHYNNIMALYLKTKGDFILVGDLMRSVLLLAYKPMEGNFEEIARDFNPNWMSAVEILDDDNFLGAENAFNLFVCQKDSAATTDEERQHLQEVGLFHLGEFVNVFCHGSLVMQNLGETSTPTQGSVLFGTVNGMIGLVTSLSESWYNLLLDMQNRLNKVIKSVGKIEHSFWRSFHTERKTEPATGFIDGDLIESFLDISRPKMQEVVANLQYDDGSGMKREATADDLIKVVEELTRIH

[2] = molecular target: T2, GSPT1 (Homo sapiens, UniProt P15170+Q96SW2); assay: Western-blot assay, substrate protein degradation in hPBMCs: GSPT1; settings: for GSPT1 substrate protein remaining %: compounds at 50 nM and 500 nM, 24 hours
T2 construct: effects of the compounds of the present disclosure on the expression of target proteins in cells; endogenous in cells; host or cells: human PBMCs (hPBMCs)
T2 sequence (P15170 whole entry): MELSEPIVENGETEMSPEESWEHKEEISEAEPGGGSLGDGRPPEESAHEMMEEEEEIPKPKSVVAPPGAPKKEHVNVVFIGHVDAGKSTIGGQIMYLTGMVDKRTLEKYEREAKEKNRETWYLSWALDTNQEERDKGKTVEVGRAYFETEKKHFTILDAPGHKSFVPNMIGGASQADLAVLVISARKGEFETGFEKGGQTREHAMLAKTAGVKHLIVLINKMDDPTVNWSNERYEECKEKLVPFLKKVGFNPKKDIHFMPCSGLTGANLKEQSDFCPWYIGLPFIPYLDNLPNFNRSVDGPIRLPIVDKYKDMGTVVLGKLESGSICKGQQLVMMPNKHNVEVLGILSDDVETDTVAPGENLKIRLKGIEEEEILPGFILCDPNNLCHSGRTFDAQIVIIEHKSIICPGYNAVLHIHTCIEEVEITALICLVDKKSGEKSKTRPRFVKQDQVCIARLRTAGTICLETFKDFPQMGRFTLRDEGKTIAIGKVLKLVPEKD
T2 sequence (Q96SW2 whole entry): as the sequence (Q96SW2 whole entry) above
T2 sequence (Q16531 whole entry partner): as the sequence (Q16531 whole entry partner) above

[3] = molecular target: T3, IKZF1 (Homo sapiens, UniProt Q13422+Q96SW2); assay: Western-blot assay, substrate protein degradation in hPBMCs: IKZF1; settings: for IKZF1 substrate protein remaining %: compounds at 50 nM and 500 nM, 24 hours
T3 construct: effects of the compounds of the present disclosure on the expression of target proteins in cells; endogenous in cells; host or cells: human PBMCs (hPBMCs)
T3 sequence (Q13422 whole entry): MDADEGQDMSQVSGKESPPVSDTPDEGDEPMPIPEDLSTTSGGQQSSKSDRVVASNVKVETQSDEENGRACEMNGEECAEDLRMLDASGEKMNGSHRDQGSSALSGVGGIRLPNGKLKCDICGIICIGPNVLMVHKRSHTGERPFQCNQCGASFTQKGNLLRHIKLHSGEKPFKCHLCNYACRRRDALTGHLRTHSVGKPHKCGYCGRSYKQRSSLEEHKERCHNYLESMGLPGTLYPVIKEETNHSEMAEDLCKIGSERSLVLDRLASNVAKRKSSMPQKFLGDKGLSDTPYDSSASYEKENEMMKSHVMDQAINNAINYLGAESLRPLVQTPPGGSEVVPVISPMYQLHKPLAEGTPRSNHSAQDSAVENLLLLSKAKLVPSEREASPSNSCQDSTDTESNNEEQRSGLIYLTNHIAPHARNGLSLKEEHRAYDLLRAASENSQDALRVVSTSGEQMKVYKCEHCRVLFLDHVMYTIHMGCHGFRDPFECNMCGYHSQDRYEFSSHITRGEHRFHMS
T3 sequence (Q96SW2 whole entry): as the sequence (Q96SW2 whole entry) above
T3 sequence (Q16531 whole entry partner): as the sequence (Q16531 whole entry partner) above

[4] = molecular target: T4, WEE1 (Homo sapiens, UniProt P30291+Q96SW2); assay: Western-blot assay, substrate protein degradation in hPBMCs: WEE1; settings: for WEE1 substrate protein remaining %: compounds at 50 nM and 500 nM, 24 hours
T4 construct: effects of the compounds of the present disclosure on the expression of target proteins in cells; endogenous in cells; host or cells: human PBMCs (hPBMCs)
T4 sequence (P30291 whole entry): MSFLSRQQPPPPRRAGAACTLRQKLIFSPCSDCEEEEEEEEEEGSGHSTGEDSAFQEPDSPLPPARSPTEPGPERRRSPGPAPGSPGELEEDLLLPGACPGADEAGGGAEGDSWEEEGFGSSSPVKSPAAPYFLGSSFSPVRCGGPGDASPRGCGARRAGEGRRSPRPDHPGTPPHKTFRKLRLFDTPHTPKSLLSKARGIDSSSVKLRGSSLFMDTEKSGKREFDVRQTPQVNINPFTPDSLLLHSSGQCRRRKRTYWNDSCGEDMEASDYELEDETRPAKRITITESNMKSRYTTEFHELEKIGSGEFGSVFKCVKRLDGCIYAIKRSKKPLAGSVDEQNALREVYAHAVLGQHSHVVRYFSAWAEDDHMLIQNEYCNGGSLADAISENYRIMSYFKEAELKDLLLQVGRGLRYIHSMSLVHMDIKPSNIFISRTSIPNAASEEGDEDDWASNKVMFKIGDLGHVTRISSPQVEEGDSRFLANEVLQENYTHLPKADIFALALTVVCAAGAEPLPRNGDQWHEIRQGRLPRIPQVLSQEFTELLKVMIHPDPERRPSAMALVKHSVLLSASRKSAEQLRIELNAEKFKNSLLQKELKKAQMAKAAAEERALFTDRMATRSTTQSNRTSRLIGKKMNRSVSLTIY
T4 sequence (Q96SW2 whole entry): as the sequence (Q96SW2 whole entry) above
T4 sequence (Q16531 whole entry partner): as the sequence (Q16531 whole entry partner) above

[5] = molecular target: T5, IKZF3 (Homo sapiens, UniProt Q96SW2+Q9UKT9); assay: Western-blot assay, substrate protein degradation in hPBMCs: IKZF3; settings: for IKZF3 substrate protein remaining %: compounds at 50 nM and 500 nM, 24 hours
T5 construct: effects of the compounds of the present disclosure on the expression of target proteins in cells; endogenous in cells; host or cells: human PBMCs (hPBMCs)
T5 sequence (Q9UKT9 whole entry): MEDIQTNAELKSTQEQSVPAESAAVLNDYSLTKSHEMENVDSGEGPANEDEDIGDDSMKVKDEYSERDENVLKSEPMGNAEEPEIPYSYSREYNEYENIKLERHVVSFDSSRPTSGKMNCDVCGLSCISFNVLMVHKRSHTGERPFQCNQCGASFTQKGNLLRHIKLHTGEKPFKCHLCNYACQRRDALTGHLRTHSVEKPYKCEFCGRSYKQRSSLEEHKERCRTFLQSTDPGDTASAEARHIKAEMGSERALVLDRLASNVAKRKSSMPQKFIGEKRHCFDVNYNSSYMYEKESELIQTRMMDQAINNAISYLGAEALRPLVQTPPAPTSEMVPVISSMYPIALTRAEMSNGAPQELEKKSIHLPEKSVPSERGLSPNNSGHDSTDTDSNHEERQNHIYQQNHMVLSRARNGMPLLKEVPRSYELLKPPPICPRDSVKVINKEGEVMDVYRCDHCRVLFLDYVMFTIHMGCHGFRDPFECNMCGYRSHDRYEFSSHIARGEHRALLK
T5 sequence (Q96SW2 whole entry): as the sequence (Q96SW2 whole entry) above
T5 sequence (Q16531 whole entry partner): as the sequence (Q16531 whole entry partner) above

[6] = molecular target: T6, IKZF2 (Homo sapiens, UniProt Q96SW2+Q9UKS7); assay: Western-blot assay, substrate protein degradation in hPBMCs: IKZF2; settings: for IKZF2 substrate protein remaining %: compounds at 50 nM and 500 nM, 24 hours
T6 construct: effects of the compounds of the present disclosure on the expression of target proteins in cells; endogenous in cells; host or cells: human PBMCs (hPBMCs)

[7] = 24 hours of compound treatment, 50 nM and 500 nM

Row | Compound | substrate protein remaining % CK1α [1, 7] | CK1α substrate protein remaining % [1] | substrate protein remaining % GSPT1 [2, 7] | GSPT1 substrate protein remaining % [2] | substrate protein remaining % IKZF1 [3, 7] | IKZF1 substrate protein remaining % [3] | substrate protein remaining % WEE1 [4, 7] | WEE1 substrate protein remaining % [4] | substrate protein remaining % IKZF3 [5, 7] | IKZF3 substrate protein remaining % [5] | substrate protein remaining % IKZF2 [6, 7] | IKZF2 substrate protein remaining % [6]
1 | O=C1CCN(N2Cc3cc(CN4CCN(c5ccncc5Br)CC4)ccc3C2=O)C(=O)N1 [GT-05439, 1-(5-((4-(3-bromopyridin-4-yl)piperazin-1-yl)methyl)-1-oxoisoindolin-2-yl)dihydropyrimidine-2,4(1H,3H)-dione] | A (0% ≤ substrate protein remaining % ≤ 80%) | B ("B" is defined as 80%< substrate protein remaining %≤ 100%) | A (0% ≤ substrate protein remaining % ≤ 80%) | B ("B" is defined as 80%< substrate protein remaining %≤ 100%) | B (80%< substrate protein remaining %≤ 100%) | B ("B" is defined as 80%< substrate protein remaining %≤ 100%) | A (0% ≤ substrate protein remaining % ≤ 80%) | A ("A" is defined as 0% ≤ substrate protein remaining % ≤ 80%) | A (0% ≤ substrate protein remaining % ≤ 80%) | B ("B" is defined as 80%< substrate protein remaining %≤ 100%) | B (80%< substrate protein remaining %≤ 100%) | B ("B" is defined as 80%< substrate protein remaining %≤ 100%)
2 | O=C1CCN(N2Cc3cc(CN4CCN(c5ccncc5F)CC4)ccc3C2=O)C(=O)N1 [GT-05697, 1-(5-((4-(3-fluoropyridin-4-yl)piperazin-1-yl)methyl)-1-oxoisoindolin-2-yl)dihydropyrimidine-2,4(1H,3H)-dione] |  | B ("B" is defined as 80%< substrate protein remaining %≤ 100%) |  | A ("A" is defined as 0% ≤ substrate protein remaining % ≤ 80%) |  | B ("B" is defined as 80%< substrate protein remaining %≤ 100%) |  | A ("A" is defined as 0% ≤ substrate protein remaining % ≤ 80%) |  | B ("B" is defined as 80%< substrate protein remaining %≤ 100%) |  | B ("B" is defined as 80%< substrate protein remaining %≤ 100%)
3 | O=C1CCN(N2Cc3cc(CN4CCN(C(c5ccccc5)c5cccnc5)CC4)ccc3C2=O)C(=O)N1 (stereo not drawn) [GT-06376, 1-(1-oxo-5-((4-(phenyl(pyridin-3-yl)methyl)piperazin-1-yl)methyl)isoindolin-2-yl)dihydropyrimidine-2,4(1H,3H)-dione] |  | B ("B" is defined as 80%< substrate protein remaining %≤ 100%) |  | A ("A" is defined as 0% ≤ substrate protein remaining % ≤ 80%) |  | B ("B" is defined as 80%< substrate protein remaining %≤ 100%) |  | A ("A" is defined as 0% ≤ substrate protein remaining % ≤ 80%) |  | B ("B" is defined as 80%< substrate protein remaining %≤ 100%) |  | A ("A" is defined as 0% ≤ substrate protein remaining % ≤ 80%)
4 | O=C1CCN(N2C(=O)c3ccc(CN4CCN(C(c5ccccc5)c5cccnc5)CC4)cc3C2=O)C(=O)N1 (stereo not drawn) [GT-06377, 2-(2,4-dioxotetrahydropyrimidin-1(2H)-yl)-5-((4-(phenyl(pyridin-3-yl)methyl)piperazin-1-yl)methyl)isoindoline-1,3-dione] |  | B ("B" is defined as 80%< substrate protein remaining %≤ 100%) |  | B ("B" is defined as 80%< substrate protein remaining %≤ 100%) |  | B ("B" is defined as 80%< substrate protein remaining %≤ 100%) |  | A ("A" is defined as 0% ≤ substrate protein remaining % ≤ 80%) |  | B ("B" is defined as 80%< substrate protein remaining %≤ 100%) |  | A ("A" is defined as 0% ≤ substrate protein remaining % ≤ 80%)
5 | O=C1CCN(N2C(=O)c3ccc(CN4CCN(C(c5ccccc5)c5ccncc5)CC4)cc3C2=O)C(=O)N1 (stereo not drawn) [GT-06378, 2-(2,4-dioxotetrahydropyrimidin-1(2H)-yl)-5-((4-(phenyl(pyridin-4-yl)methyl)piperazin-1-yl)methyl)isoindoline-1,3-dione] |  | B ("B" is defined as 80%< substrate protein remaining %≤ 100%) |  | B ("B" is defined as 80%< substrate protein remaining %≤ 100%) |  | B ("B" is defined as 80%< substrate protein remaining %≤ 100%) |  | A ("A" is defined as 0% ≤ substrate protein remaining % ≤ 80%) |  | A ("A" is defined as 0% ≤ substrate protein remaining % ≤ 80%) |  | A ("A" is defined as 0% ≤ substrate protein remaining % ≤ 80%)
6 | O=C1CCN(N2C(=O)c3ccc(CN4CCN(C(c5ccccn5)c5ccccn5)CC4)cc3C2=O)C(=O)N1 [GT-06379, 5-((4-(di(pyridin-2-yl)methyl)piperazin-1-yl)methyl)-2-(2,4-dioxotetrahydropyrimidin-1(2H)-yl)isoindoline-1,3-dione] |  | B ("B" is defined as 80%< substrate protein remaining %≤ 100%) |  | A ("A" is defined as 0% ≤ substrate protein remaining % ≤ 80%) |  | B ("B" is defined as 80%< substrate protein remaining %≤ 100%) |  | A ("A" is defined as 0% ≤ substrate protein remaining % ≤ 80%) |  | A ("A" is defined as 0% ≤ substrate protein remaining % ≤ 80%) |  | A ("A" is defined as 0% ≤ substrate protein remaining % ≤ 80%)
7 | CC1(C)CN(Cc2ccc3c(c2)C(=O)N(N2CCC(=O)NC2=O)C3=O)CCN1C(c1ccccc1)c1ccccc1 [GT-06385, 5-((4-benzhydryl-3,3-dimethylpiperazin-1-yl)methyl)-2-(2,4-dioxotetrahydropyrimidin-1(2H)-yl)isoindoline-1,3-dione] |  | B ("B" is defined as 80%< substrate protein remaining %≤ 100%) |  | A ("A" is defined as 0% ≤ substrate protein remaining % ≤ 80%) |  | B ("B" is defined as 80%< substrate protein remaining %≤ 100%) |  | A ("A" is defined as 0% ≤ substrate protein remaining % ≤ 80%) |  | A ("A" is defined as 0% ≤ substrate protein remaining % ≤ 80%) |  | B ("B" is defined as 80%< substrate protein remaining %≤ 100%)
8 | O=C1CCN(N2Cc3cc(CN4CCC(c5nccc(Cl)c5Cl)CC4)ccc3C2=O)C(=O)N1 [GT-06388, 1-(5-((4-(3,4-dichloropyridin-2-yl)piperidin-1-yl)methyl)-1-oxoisoindolin-2-yl)dihydropyrimidine-2,4(1H,3H)-dione] |  | B ("B" is defined as 80%< substrate protein remaining %≤ 100%) |  | A ("A" is defined as 0% ≤ substrate protein remaining % ≤ 80%) |  | B ("B" is defined as 80%< substrate protein remaining %≤ 100%) |  | B ("B" is defined as 80%< substrate protein remaining %≤ 100%) |  | B ("B" is defined as 80%< substrate protein remaining %≤ 100%) |  | B ("B" is defined as 80%< substrate protein remaining %≤ 100%)
